{
  "source": "patent US9271995B2",
  "about": "“Agent for ameliorating brain hypofunction” (The University of Tokyo, priority 2008, dated 2016)",
  "format_in_all_cases": "in vivo",
  "key": {"[1]": {"system": "old mice (male C57BL6/Njcl)", "test": "Open field test", "details": "ManNAc 5 mg/ml in tap water ad libitum", "description": "(§1) • 1) Object and place recognition task experiments were performed on male C57BL6/Njcl mice in three groups. Outline of the experiments is shown in FIG. 1. • Old control group: Old mice (reared from 47 to 66 weeks of age, n=10) were allowed to drink tap water ad libitum. • Old ManNAc recipient group: Old mice (reared from 47 to 66 weeks of age, n=10) were allowed to drink tap water with ManNAc (5 mg/ml) dissolved therein ad libitum. • Young control group: Young mice (reared from 8 to 18 weeks of age, n=10) were allowed to drink tap water ad libitum. • 2) Experimental procedures: An open field test was performed to examine the tendency toward anxiety and locomotor activity, and this was followed by place recognition task and object recognition task in accordance with conventional methods (see FIG. 2). • 3) Experimental results (FIGS. 3 and 4)\nOpen field test (FIG. 3): Moving distance in an unfamiliar planar space was compared between the old mice and the young mice."}, "[2]": {"system": "old mice (male C57BL6/Njcl)", "test": "Place recognition task", "details": "ManNAc 5 mg/ml in tap water ad libitum, paired t-test, p<0.05", "description": "as §1\n(§2) When ManNAc was administered to the old mice (FIG. 4C), the exploratory behavior times for the new place (paired t-test, p<0.05) and the new object (paired t-test, p<0.001) normalized in all tasks; a capability of recognition memory equivalent to that of the young mice was shown."}, "[3]": {"system": "old mice (male C57BL6/Njcl)", "test": "Object recognition task", "details": "ManNAc 5 mg/ml in tap water ad libitum, paired t-test, p<0.001", "description": "as §1, §2"}, "middle-aged mice [4]": {"system": "middle-aged mice", "test": "Sleep analysis by electroencephalograms and electromyograms (aging-related sleep disorders)", "excerpt": "(§3) Mice are awake during active time in the dark phase and conversely cease their activities and have a sleep in the light phase. It is known that in aged mice, the wake-sleep rhythm is deranged to the extent of lighter sleep in the light phase and decreased activities during wake time in the dark phase. It is also known that the aging-related derangement of wake and sleep is related to hypothalamic activity and accompanied by elevated body temperatures and increased heart rates. Because these symptoms are similar to those in human patients in their middle age to senescence who complain of dissatisfaction with sleep, they serve as an appropriate model for examining the influences on sleep.\n(§4) Middle-aged mice [three reared from 43 to 66 weeks of age under light-dark cycle conditions (12-hour light phase-12-hour dark phase)] were allowed to drink ManNAc solution (5 mg/ml tap water) ad libitum. During 1 week before and after the free access to the solution, […], body temperature, and locomotor activity were monitored over time using a telemeter. Also analyzed were electroencephalograms recorded during wake and sleep times in both the ManNAc non-ingestion period and the free-access period. To measure electroencephalograms and electromyograms, a mouse electroencephalogram transmitter (F20EET, Data Sciences) was implanted in each animal under anesthesia (pentobarbital, 30 mg/kg, i.v.), and electroencephalograms, electromyograms, body temperature, and locomotor activity were continuously recorded using ART (Data Sciences Company). The electroencephalograms thus obtained were analyzed using NeuroScore (Data Sciences Company), and the sleep events were classified into REM sleep and slow wave sleep. The lengths of each sleep stage were totaled and compared among the mice before and after administration and young mice."}, "middle-aged mice [5]": {"system": "middle-aged mice", "test": "Telemeter monitoring of heart rate, body temperature and locomotor activity", "details": "administration of ManNAc", "excerpt": "as §3, §4"}, "[6]": {"details": "middle-aged mice receiving ManNAc, began to be observed on day 2 after administration"}},
  "data": [
    {"smiles": "CC(=O)N[C@@H]1C(O)O[C@H](CO)[C@@H](O)[C@@H]1O", "note": "(stereo partly drawn) [ManNAc, N-acetyl-D-mannosamine]", "values": [
      {"measurement": "total motor activity", "setting": "[1]", "value": "without influencing total motor activity"},
      {"measurement": "rise in the tendency toward anxiety (time of stay in the central portion)", "setting": "[1]; vs old control", "value": "tended to decrease slightly, but the difference was statistically insignificant"},
      {"measurement": "exploratory behavior time for the new place", "setting": "[2]", "value": "normalized"},
      {"measurement": "exploratory behavior time for the new object", "setting": "[3]", "value": "normalized"},
      {"measurement": "day after the start of administration on which the effect on sleep begins to be evident", "setting": "middle-aged mice [4]; extension of REM sleep time, sleep-wake rhythm", "value": 2, "unit": "days"},
      {"measurement": "REM sleep", "setting": "middle-aged mice [4]; [6]", "value": "increased"},
      {"measurement": "slow wave sleep", "setting": "middle-aged mice [4]; [6]", "value": "decreased"},
      {"measurement": "wake time", "setting": "middle-aged mice [4]; [6]", "value": "remarkably increased"},
      {"measurement": "Wake, daily percentage", "setting": "middle-aged mice [4]; middle-aged mice, 4 days after administration, ManNAc 5 mg/ml tap water ad libitum (before administration 1.8)", "value": 2.2, "unit": "%"},
      {"measurement": "REM sleep, daily percentage", "setting": "middle-aged mice [4]; middle-aged mice, 4 days after administration, ManNAc 5 mg/ml tap water ad libitum (before administration 5.4)", "value": 10.0, "unit": "%"},
      {"measurement": "Wake (major), daily percentage", "setting": "middle-aged mice [4]; middle-aged mice, 4 days after administration, ManNAc 5 mg/ml tap water ad libitum (before administration 12.7)", "value": 15.3, "unit": "%"},
      {"measurement": "Slow wave sleep, daily percentage", "setting": "middle-aged mice [4]; middle-aged mice, 4 days after administration, ManNAc 5 mg/ml tap water ad libitum (before administration 80.0)", "value": 72.5, "unit": "%"},
      {"measurement": "change in heart rate due to behavioral change (difference between the light and dark phases)", "setting": "middle-aged mice [5]", "value": "became evident"},
      {"measurement": "difference in locomotor activity between the light and dark phases", "setting": "middle-aged mice [5]", "value": "increased"},
      {"measurement": "body temperature", "setting": "middle-aged mice [5]; non-active period", "value": "declined"}
    ]}
  ]
}
